Measurements taken from patent US20230019236A1, “PROTEIN TYROSINE PHOSPHATASE INHIBITORS AND METHODS OF USE THEREOF” (Calico Life Sciences LLC, priority 2019, published 2023).

Experiments:
[1] = molecular target: T1, His tagged full-length PTP1B protein (Homo sapiens, UniProt P18031); assay: Mobility Shift Assay (MSA) used to determine potency of PTP1B inhibitors; assay type: biochemical; details: Table 2
T1 construct: made in house
T1 sequence (P18031 with tags, fused parts or gaps): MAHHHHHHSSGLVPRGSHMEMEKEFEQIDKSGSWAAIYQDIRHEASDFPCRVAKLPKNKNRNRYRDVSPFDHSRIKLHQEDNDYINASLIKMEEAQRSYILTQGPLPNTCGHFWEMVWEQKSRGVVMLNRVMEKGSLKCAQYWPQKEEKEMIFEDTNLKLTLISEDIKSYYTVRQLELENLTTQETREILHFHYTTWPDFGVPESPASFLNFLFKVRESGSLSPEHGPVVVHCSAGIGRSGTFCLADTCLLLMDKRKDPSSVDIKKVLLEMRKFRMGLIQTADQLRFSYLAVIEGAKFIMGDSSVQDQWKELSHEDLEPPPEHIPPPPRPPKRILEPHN
Procedure: The enzymatic assay used to determine activity is a mobility shift assay using a LabChip EZ Reader by Caliper Life Sciences. The enzymatic reaction was carried out in assay buffer (50 mM HEPES pH 7.5, 1 mM EGTA, 10 mM EDTA, 0.01% Tween® 20, and 2 mM DTT). […] The enzyme (at 0.5 nM) was incubated with compound for 10 minutes at room temperature. […] The % inhibition was then used to calculate the IC50 values.

[2] = molecular target: T2, His tagged PTPN2 (TC45) protein (Homo sapiens, UniProt P17706); assay: Mobility Shift Assay used to determine potency of PTPN2 inhibitors; assay type: biochemical; details: Table 2; read-out: PTPN2 MSA IC50
T2 construct: made in house
T2 sequence (P17706 with tags, fused parts or gaps isoform P17706-2): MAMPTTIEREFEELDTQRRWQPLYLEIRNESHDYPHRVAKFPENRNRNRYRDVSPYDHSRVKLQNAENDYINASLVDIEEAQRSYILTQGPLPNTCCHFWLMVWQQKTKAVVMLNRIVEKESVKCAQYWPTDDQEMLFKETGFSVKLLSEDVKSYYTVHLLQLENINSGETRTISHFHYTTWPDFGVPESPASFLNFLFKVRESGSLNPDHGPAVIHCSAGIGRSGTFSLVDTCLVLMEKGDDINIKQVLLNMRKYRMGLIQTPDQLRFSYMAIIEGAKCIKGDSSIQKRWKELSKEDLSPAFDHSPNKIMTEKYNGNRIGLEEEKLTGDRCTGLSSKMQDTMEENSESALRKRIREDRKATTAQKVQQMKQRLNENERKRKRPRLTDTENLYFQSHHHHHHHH
Procedure: Example 292: Mobility Shift Assay used to determine potency of PTPN2 inhibitors
Compound activity was determined using in house His tagged PTPN2 (TC45) protein (SEQ ID NO: 1) in an in vitro enzymatic reaction. The enzymatic assay used to determine activity was a mobility shift assay using a LabChip EZ Reader by Caliper Life Sciences. The enzymatic reaction was carried out in assay buffer (50 mM HEPES pH 7.5, 1 mM EGTA, 10 mM EDTA, 0.01% Tween® 20, and 2 mM DTT). The compounds were dispensed on a white 384 well ProxiPlate™ (PerkinElmer Catalog#6008289) plate using the Labcyte Echo at varying concentrations (12 point, 1:3 dilution). The enzyme (at 0.5 nM) was incubated with compound for 10 minutes at room temperature. Then the substrate (phosphorylated insulin receptor probe sequence: ((OG488)—{NH—CH2—CH2—O—CH2—CH2—O—CH2—CO)—T—R—D—I—(PY)—E—T—D—Y—Y—R—K—K—NH2) (SEQ ID NO: 2) was added at 2 μM to the plates and incubated for another 10 minutes at room temperature. Finally, a quench solution (water and 4-bromo-3-(2-oxo-2-propoxyethoxy)-5-(3-{[1-(phenylmethanesulfonyl)piperidin-4-yl]amino}phenyl)thiophene-2-carboxylic acid) was added to the plates, which were then run on the EZ Reader (excitation 488 nm, emission 530 nm) to measure % conversion (the amount of phosphorylated substrate which was de-phosphorylated by PTPN2). […] The % inhibition was then used to calculate the IC50 values.

Row | SMILES | IC50 [1] [nM] | IC50 [2] [nM]
1 | O=C1CN(c2c(O)cc3ccc(OCCC4CCOC4)cc3c2F)S(=O)(=O)N1 (stereo not shown) [Compound 350, 5-{1-fluoro-3-hydroxy-7-[2-(oxolan-3-yl)ethoxy]naphthalen-2-yl}-1λ^6,2,5-thiadiazolidine-1,1,3-trione] | < 1 | < 1
2 | CC(C)(C)CCOc1ccc2cc(O)c(N3CC(=O)NS3(=O)=O)c(F)c2c1 [Compound 352, 5-[7-(3,3-dimethylbutoxy)-1-fluoro-3-hydroxynaphthalen-2-yl]-1λ^6,2,5-thiadiazolidine-1,1,3-trione] | < 1 | < 1
3 | O=C1CN(c2c(O)cc3ccc(OCCN4CCNC4=O)cc3c2F)S(=O)(=O)N1 [Compound 326, 5-{1-fluoro-3-hydroxy-7-[2-(2-oxoimidazolidin-1-yl)ethoxy]naphthalen-2-yl}-1λ^6,2,5-thiadiazolidine-1,1,3-trione] | 10 to 100 | < 1
4 | N#CC1(COc2ccc3cc(O)c(N4CC(=O)NS4(=O)=O)c(F)c3c2)CC1 [Compound 199, 1-({[8-fluoro-6-hydroxy-7-(1,1,4-trioxo-1λ^6,2,5-thiadiazolidin-2-yl)naphthalen-2-yl]oxy}methyl)cyclopropane-1-carbonitrile] | > 100 | 1 to 10
5 | O=C1CN(c2c(O)cc3cc(O)ccc3c2F)S(=O)(=O)N1 [Compound 328, 5-(1-fluoro-3,6-dihydroxynaphthalen-2-yl)-1λ^6,2,5-thiadiazolidine-1,1,3-trione] | 1 to 10 | < 1
6 | C[C@](O)(CC#N)CCOc1ccc2cc(O)c(N3CC(=O)NS3(=O)=O)c(F)c2c1 [Compound 347, (3S)-5-{[8-fluoro-6-hydroxy-7-(1,1,4-trioxo-1λ^6,2,5-thiadiazolidin-2-yl)naphthalen-2-yl]oxy}-3-hydroxy-3-methylpentanenitrile] | 1 to 10 | < 1
7 | CC(C)NCCCc1ccc2cc(O)c(N3CC(=O)NS3(=O)=O)c(F)c2c1 [Compound 349, 5-(1-fluoro-3-hydroxy-7-{3-[(propan-2-yl)amino]propyl}naphthalen-2-yl)-1λ^6,2,5-thiadiazolidine-1,1,3-trione] | 1 to 10 | 1 to 10
8 | CC(C)CCOc1ccc2c(F)c(N3CC(=O)NS3(=O)=O)c(O)cc2c1 [Compound 339, 5-[1-fluoro-3-hydroxy-6-(3-methylbutoxy)naphthalen-2-yl]-1λ^6,2,5-thiadiazolidine-1,1,3-trione] | 10 to 100 | 10 to 100
9 | O=C1CN(c2c(O)cc3ccc(C4=CCN(S(=O)(=O)CCCO)C4)cc3c2F)S(=O)(=O)N1 [Compound 369, 5-{1-fluoro-3-hydroxy-7-[1-(3-hydroxypropane-1-sulfonyl)-2,5-dihydro-1H-pyrrol-3-yl]naphthalen-2-yl}-1λ^6,2,5-thiadiazolidine-1,1,3-trione] | < 1 | < 1
10 | O=C1CN(c2c(O)cc3ccc(OCCNS(=O)(=O)C4CC4)cc3c2F)S(=O)(=O)N1 [Compound 127, N-(2-{[8-fluoro-6-hydroxy-7-(1,1,4-trioxo-1λ^6,2,5-thiadiazolidin-2-yl)naphthalen-2-yl]oxy}ethyl)cyclopropanesulfonamide] | 1 to 10 | 1 to 10
11 | CC(C)(C#N)CCOc1cc2c(F)c(N3CC(=O)NS3(=O)=O)c(O)cc2cc1O [Compound 366, 4-{[8-fluoro-3,6-dihydroxy-7-(1,1,4-trioxo-1λ^6,2,5-thiadiazolidin-2-yl)naphthalen-2-yl]oxy}-2,2-dimethylbutanenitrile] | < 1 | < 1
12 | CCc1cc2c(F)c(N3CC(=O)NS3(=O)=O)c(O)cc2cc1O [Compound 358, 5-(7-ethyl-1-fluoro-3,6-dihydroxynaphthalen-2-yl)-1λ^6,2,5-thiadiazolidine-1,1,3-trione] | 1 to 10 | 1 to 10
13 | O=C1CN(c2c(O)cc3cc(O)c(OCCC4CCOC4)cc3c2F)S(=O)(=O)N1 (stereo not shown) [Compound 367, 5-{1-fluoro-3,6-dihydroxy-7-[2-(oxolan-3-yl)ethoxy]naphthalen-2-yl}-1λ^6,2,5-thiadiazolidine-1,1,3-trione] | < 1 | < 1
14 | O=C1CN(c2c(O)cc3cc(O)c(OCCCC(F)F)cc3c2F)S(=O)(=O)N1 [Compound 365, 5-[7-(4,4-difluorobutoxy)-1-fluoro-3,6-dihydroxynaphthalen-2-yl]-1λ^6,2,5-thiadiazolidine-1,1,3-trione] | < 1 | < 1
15 | C[C@](O)(CO)CCOc1ccc2cc(O)c(N3CC(=O)NS3(=O)=O)c(F)c2c1 [Compound 343, 5-{7-[(3R)-3,4-dihydroxy-3-methylbutoxy]-1-fluoro-3-hydroxynaphthalen-2-yl}-1λ^6,2,5-thiadiazolidine-1,1,3-trione] | 1 to 10 | < 1
16 | O=C1CN(c2c(O)cc3cc(O)c(OCCC4CCC4)cc3c2F)S(=O)(=O)N1 [Compound 362, 5-[7-(2-cyclobutylethoxy)-1-fluoro-3,6-dihydroxynaphthalen-2-yl]-1λ^6,2,5-thiadiazolidine-1,1,3-trione] | < 1 | < 1
17 | CC(C)(O)CCNc1ccc2c(F)c(N3CC(=O)NS3(=O)=O)c(O)cc2c1 [Compound 333, 5-{1-fluoro-3-hydroxy-6-[(3-hydroxy-3-methylbutyl)amino]naphthalen-2-yl}-1λ^6,2,5-thiadiazolidine-1,1,3-trione] | 10 to 100 | 10 to 100
18 | CC(C)(CO)CCOc1ccc2cc(O)c(N3CC(=O)NS3(=O)=O)c(F)c2c1 [Compound 342, 5-[1-fluoro-3-hydroxy-7-(4-hydroxy-3,3-dimethylbutoxy)naphthalen-2-yl]-1λ^6,2,5-thiadiazolidine-1,1,3-trione] | < 1 | < 1
19 | C[C@@](O)(CO)CCOc1ccc2cc(O)c(N3CC(=O)NS3(=O)=O)c(F)c2c1 [Compound 341, 5-{7-[(3S)-3,4-dihydroxy-3-methylbutoxy]-1-fluoro-3-hydroxynaphthalen-2-yl}-1λ^6,2,5-thiadiazolidine-1,1,3-trione] | < 1 | < 1
20 | O=C1CN(c2c(O)cc3cc(O)c(OCCC4CCCC4)cc3c2F)S(=O)(=O)N1 [Compound 364, 5-[7-(2-cyclopentylethoxy)-1-fluoro-3,6-dihydroxynaphthalen-2-yl]-1λ^6,2,5-thiadiazolidine-1,1,3-trione] | < 1 | < 1
21 | N#CCC1(COc2ccc3cc(O)c(N4CC(=O)NS4(=O)=O)c(F)c3c2)CC1 [Compound 130, [1-({[8-fluoro-6-hydroxy-7-(1,1,4-trioxo-1λ^6,2,5-thiadiazolidin-2-yl)naphthalen-2-yl]oxy}methyl)cyclopropyl]acetonitrile] | 1 to 10 | 1 to 10
22 | CC(C)(CO)CS(=O)(=O)N1CC=C(c2ccc3cc(O)c(N4CC(=O)NS4(=O)=O)c(F)c3c2)C1 [Compound 344, 5-{1-fluoro-3-hydroxy-7-[1-(3-hydroxy-2,2-dimethylpropane-1-sulfonyl)-2,5-dihydro-1H-pyrrol-3-yl]naphthalen-2-yl}-1λ^6,2,5-thiadiazolidine-1,1,3-trione] | < 1 | < 1
23 | O=C1CN(c2c(O)cc3cc(O)c(OCCC4CCCO4)cc3c2F)S(=O)(=O)N1 (stereo not shown) [Compound 360, 5-{1-fluoro-3,6-dihydroxy-7-[2-(oxolan-2-yl)ethoxy]naphthalen-2-yl}-1λ^6,2,5-thiadiazolidine-1,1,3-trione] | < 1 | < 1
